In US9517275B2, “Targeted therapy for the prevention of restenosis in the cardiovascular system” (Northwestern University, priority 2013, dated 2016):
Residues, ends and D or L forms follow the SMILES beside them. *: point of attachment. Lauroyl = CCCCCCCCCCCC(=O)*

Experiments:
[1] = Protocol: Adult male Sprague-Dawley rats weighing 350 to 400 g underwent midline neck incision with exposure of internal jugular vein. Targeted nanofiber 2.5 mg was dissolved in 1.0 mL of HBBS and injected within the internal jugular vein using 25 G needle. After complete injection, needle was withdrawn, pressure held at the injection site for 1 minute and the neck incision was closed. Rats were euthanized at 10, 15, 30, 60 min, 4, 16 hours, 4 and 6 days post injection and viscera (liver, lung, kidney and spleen) were harvested.
Carotid arteries and viscera were harvested after in-situ perfusion-fixation with PBS (250 mL) and placed in 2% paraformaldehyde overnight.

[2] = Small angle X-ray scattering (SAXS) of nanostructures; type: physicochemical
Protocol: Small angle X-ray scattering (SAXS) experiments were performed at the Advanced Photon Source, Argonne National Laboratory. The X-ray energy (15 keV) was selected using a double-crystal monochromator with a 30 mm offset. Samples were dissolved at a concentration of 5 mM in PBS and placed in 1.5 mm quartz capillary tubes. The typical incident X-ray flux on the sample was ˜1×10^12 photons/s with a 0.2×0.3 mm^2 collimator, and samples were exposed for 4 s. The 1D scattering profiles were obtained by azimuthal integration of the 2D patterns, with scattering from the capillaries and PBS buffer subtracted as background. Scattering profiles were then plotted on a relative scale as a function of the scattering vector q=(4π/λ) sin(θ/2), where θ is the scattering angle.

Row | Compound | earliest time fluorescence present within the kidneys ([1]; 2.5 mg internal jugular vein) [min] | fluorescence in the kidneys over time ([1]; 2.5 mg internal jugular vein) | fluorescence in the liver over time ([1]; 2.5 mg internal jugular vein) | latest time fluorescence present within the kidneys ([1]; 2.5 mg internal jugular vein) [days] | fluorescence within the liver and kidneys ([1]; 2.5 mg internal jugular vein, 10 min to 6 days) | fluorescence in the brain, heart, intestine and lungs ([1]; any of the time points) | self-assembly by SAXS [2]
1 | CCCCCCCCCCCC(=O)NCCCC[C@H](NC(=O)[C@@H](NC(=O)[C@@H](NC(=O)[C@H](C)NC(=O)[C@H](C)NC(=O)[C@H](CCCCN)NC(=O)[C@H](CCCCN)NC(=O)[C@H](CS)NC(=O)[C@H](CCCCN)NC(=O)[C@@H]1CCCN1C(=O)[C@H](CC(C)C)NC(=O)[C@H](Cc1c[nH]c2ccccc12)NC(=O)[C@@H](NC(=O)[C@H](CC(C)C)NC(=O)[C@@H](N)CCCCN)C(C)C)C(C)C)C(C)C)C(=O)O [targeted nanofiber, KLVWLPKCK2A2V2K(C12)] (H-KLVWLPKCKKAAVVK(Lauroyl)-OH; N-terminus and C-terminus assumed) | 10 | increasing fluorescence | Decreasing fluorescence | 6 | Fluorescence was observed | no fluorescence detected | –
2 | KLWVLPKC | – | – | – | – | – | – | did not display any evidence of self-assembly
